Paper PMC9224473 (International Journal of Molecular Sciences, 2022)
Converted amounts (≈) assume the structure as drawn.

Tests used:
[1] = test system: S. aureus NCTC 4163; assay: MIC, broth microdilution, standard strain; type: cell-based, Staphylococcus aureus; conditions: Staphylococcus aureus, NCTC4163, 19 h, 35 °C
[2] = test system: S. aureus ATCC 25923; assay: MIC, broth microdilution, standard strain; type: cell-based, Staphylococcus aureus; conditions: Staphylococcus aureus, ATCC25923, 19 h, 35 °C
[3] = test system: S. aureus ATCC 6538; assay: MIC, broth microdilution, standard strain; type: cell-based, Staphylococcus aureus; conditions: Staphylococcus aureus, ATCC6538, 19 h, 35 °C
[4] = test system: S. aureus ATCC 29213; assay: MIC, broth microdilution, standard strain; type: cell-based, Staphylococcus aureus; conditions: Staphylococcus aureus, ATCC29213, 19 h, 35 °C
[5] = test system: S. epidermidis ATCC 12228; assay: MIC, broth microdilution, standard strain; type: cell-based, Staphylococcus epidermidis; conditions: Staphylococcus epidermidis, ATCC12228, 19 h, 35 °C
[6] = test system: S. epidermidis ATCC 35984; assay: MIC, broth microdilution, standard strain; type: cell-based, Staphylococcus epidermidis; conditions: Staphylococcus epidermidis, ATCC35984, 19 h, 35 °C
[7] = test system: E. coli ATCC 25922; assay: MIC, broth microdilution, standard strain; type: cell-based, Escherichia coli; conditions: Escherichia coli, ATCC25922, 19 h, 35 °C
[8] = test system: P. aeruginosa ATCC 15442; assay: MIC, broth microdilution, standard strain; type: cell-based, Pseudomonas aeruginosa; conditions: Pseudomonas aeruginosa, ATCC15442, 19 h, 35 °C
[9] = test system: HCT116 (human colon cancer); assay: MTT cytotoxicity assay; type: cell-based; conditions: Homo sapiens, HCT-116, 72 h, mean SD
Experimental: (§1) The human cell lines SW480 (primary colon cancer), SW620 (lymph node metastatic colon cancer from the same patient as primary cancer cells), HCT116 (colon carcinoma), HepG2 (liver cancer), and HaCaT (immortalized keratinocytes) were obtained from the American Type Culture Collection (ATCC, Rockville, MD, USA). The SW480, SW620 and HCT116 cells were grown in MEM (ThermoSci, Waltham, MA, USA), HepG2 and HaCaT in DMEM High Glucose (Biowest SAS, Nuaillé, France) supplemented with 10% foetal bovine serum (FBS), HEPES (20 mM), and antibiotics (100 U mL^−1 of Penicillin and 100 μg mL^−1 of Streptomycin). The cells were incubated in a humidified incubator at 37 °C/5% CO2, until 80–90% confluence was reached.
(§2) The cell viability was assessed by using of MTT salt [3-(4,5-dimethylthiazol-2-yl)-2,5-diphenyltetrazolium bromide] converted by mitochondrial dehydrogenase, occurring in living cells. The cells were seeded in 96-well plates at a density of 1 × 10^4 cells per well and allowed to adhere for 24 h at 37 °C in a CO2 humidified incubator. […]. The untreated cells were used as the control.
(§3) After 72 h incubation, the medium was replaced with 200 µL per well of free-serum medium containing 0.5 mg mL^−1 MTT and incubated for 4 h at 37 °C in a CO2 humidified incubator. Subsequently, the medium was removed and dimethyl sulfoxide (DMSO) with isopropanol (1:1) was added to dissolve the formazan crystals. The optical density was measured using UVM 340 reader (ASYS Hitech GmbH, Eugendorf, Austria) at a wavelength of 570 nm. The experiments were repeated three times. The cell viability was calculated as the percent of MTT reduced in treated cells versus control cells (untreated cells). The number of viable cells cultured without tested compounds was assumed as 100%. A decreased relative MTT level indicates decreased cell viability. The IC50 values were estimated using CompuSyn version 1.0.

[10] = test system: HaCaT (human immortal keratinocyte cell line); assay: MTT cytotoxicity assay; type: cell-based; conditions: Homo sapiens, HaCaT, 72 h, mean SD, read-out: IC50 HaCaT (normal cells)
Experimental: as §1, §2, §3

[11] = test system: HepG2 (human liver cancer); assay: MTT cytotoxicity assay; type: cell-based; conditions: Homo sapiens, HepG2, 72 h, mean SD
Experimental: as §1, §2, §3

[12] = test system: SW480 (human primary colon cancer); assay: MTT cytotoxicity assay; type: cell-based; conditions: Homo sapiens, SW480, 72 h, mean SD
Experimental: as §1, §2, §3

[13] = test system: SW620 (human metastatic colon cancer); assay: MTT cytotoxicity assay; type: cell-based; conditions: Homo sapiens, SW-620, 72 h, mean SD
Experimental: as §1
The cell viability was assessed by using of MTT salt [3-(4,5-dimethylthiazol-2-yl)-2,5-diphenyltetrazolium bromide] converted by mitochondrial dehydrogenase, occurring in living cells. […] The untreated cells were used as the control.
as §3, with “Subsequently,” for “After 72 h incubation, the medium was replaced with 200 µL per well of free-serum medium containing 0.5 mg mL^−1 MTT and incubated for 4 h at 37 °C in a CO2 humidified incubator. Subsequently,”

[14] = test system: standard bacteria strains; assay: Antimicrobial screening (MIC), standard bacteria strains; type: cell-based; conditions: MIC evaluation
Experimental: Obtained compounds were examined for antimicrobial potency. Firstly, all of them were screened for their minimal inhibitory concentrations (MICs). A suitable set of bacteria was used, including representative standard Gram-positive and Gram-negative rods (Table 2 and Table 3). For clarity, results are presented for menthol and thymol derivatives separately.
The antimicrobial assays were conducted using reference strains of bacteria derived from international microbe collections: American Type Culture Collection (ATCC) and National Collection of Type Culture (NCTC). The following standard strains of bacteria were used: Gram-positive—Staphylococcus aureus NCTC 4163, Staphylococcus aureus ATCC 25923, Staphylococcus aureus ATCC 6538, Staphylococcus aureus ATCC 29213, Staphylococcus epidermidis ATCC 12228, Staphylococcus epidermidis ATCC 35984, Gram-negative: Escherichia coli ATCC 25922, Pseudomonas aeruginosa ATCC 15442. […] Antimicrobial activity was examined by the Minimal Inhibitory Concentration (MIC) method under standard procedures provided by CLSI with some modifications. MIC was determined by the two-fold serial broth microdilution method in 96-well microtitration plates using Mueller–Hinton II broth medium (Becton Dickinson, Franklin Lakes, NJ, USA). The final inoculum of all studied bacteria was 10^6 CFU/mL (colony forming unit per millilitre). The stock solution of tested compounds was prepared in dimethyl sulfoxide (DMSO) and diluted to a maximum of 1% of solvent content with a sterile medium.

`CC(C)[C@@H]1CC[C@@H](C)C[C@H]1OC(=O)CCCCOC(=O)c1cn(C2CC2)c2cc(N3CCN(CCCCC(=O)O[C@@H]4C[C@H](C)CC[C@H]4C(C)C)CC3)c(F)cc2c1=O` [Compound 7, 5-((1R,2S,5R)-2-isopropyl-5-methylcyclohexyloxy)-5-oxopentyl-1-cyclopropyl-6-fluoro-7-{4-[5-((1R,2S,5R)-2-isopropyl-5-methylcyclohexyloxy)-5-oxopentyl]piperazin-1-yl}-4-oxo-1,4-dihydroquinoline-3-carboxylate] gave an MIC [1] greater than 256 µg/mL, an MIC [2] greater than 256 µg/mL and an MIC [3] greater than 256 µg/mL. The MIC [4] was greater than 256 µg/mL, the MIC [5] was greater than 256 µg/mL and the MIC [6] was greater than 256 µg/mL. The MIC [7] was greater than 256 µg/mL, the MIC [8] was greater than 256 µg/mL and the IC50 [9] was 49.3 ± 6.5 µM. It also gave an IC50 [10] of 25.6 ± 1.2 µM, an IC50 [11] of 32.8 ± 3.1 µM and an IC50 [12] of 45.5 ± 5.5 µM. For the same molecule, the IC50 [13] was 54.1 ± 0.5 µM and the “Antimicrobial activity (in words)” value [14] was “rather inactive”.
Molecule `CC(C)[C@@H]1CC[C@@H](C)C[C@H]1OC(=O)CCCCCOC(=O)c1cn(C2CC2)c2cc(N3CCN(CCCCCC(=O)O[C@@H]4C[C@H](C)CC[C@H]4C(C)C)CC3)c(F)cc2c1=O` [Compound 8, 6-((1R,2S,5R)-2-isopropyl-5-methylcyclohexyloxy)-6-oxohexyl-1-cyclopropyl-6-fluoro-7-{4-[6-((1R,2S,5R)-2-isopropyl-5-methylcyclohexyloxy)-6-oxohexyl]piperazin-1-yl}-4-oxo-1,4-dihydroquinoline-3-carboxylate] has an MIC [1] greater than 256 µg/mL, an MIC [2] greater than 256 µg/mL and an MIC [3] greater than 256 µg/mL. The MIC [4] was greater than 256 µg/mL, the MIC [5] was greater than 256 µg/mL and the MIC [6] was greater than 256 µg/mL. It also gave an MIC [7] greater than 256 µg/mL, an MIC [8] greater than 256 µg/mL and an IC50 [9] of 31.6 ± 7.4 µM. For the same molecule, the IC50 [10] was 33.4 ± 3.8 µM, the IC50 [11] was 30.2 ± 1.9 µM and the IC50 [12] was 78.2 ± 5.8 µM. The IC50 [13] was 48.7 ± 2.8 µM and the “Antimicrobial activity (in words)” value [14] was “rather inactive”.
Molecule `Cc1ccc(C(C)C)c(OC(=O)CCCCCOC(=O)c2cn(C3CC3)c3cc(N4CCN(CCCCCC(=O)Oc5cc(C)ccc5C(C)C)CC4)c(F)cc3c2=O)c1` [Compound 16] has an MIC [1] of 128 µg/mL (≈ 155 µM), an MIC [2] of 128 µg/mL (≈ 155 µM) and an MIC [3] of 64 µg/mL (≈ 77.7 µM). It also gave an MIC [4] of 256 µg/mL (≈ 311 µM), an MIC [5] of 128 µg/mL (≈ 155 µM) and an MIC [6] of 128 µg/mL (≈ 155 µM). The MIC [7] was greater than 256 µg/mL, the MIC [8] was greater than 256 µg/mL and the IC50 [9] was 30.5 ± 2.3 µM. For the same molecule, the IC50 [10] was 64.9 ± 5.1 µM, the IC50 [11] was 41.8 ± 2.5 µM and the IC50 [12] was 29.5 ± 1.9 µM. For the same molecule, the IC50 [13] was 49.6 ± 7 µM and the “Antimicrobial activity (in words)” value [14] was “rather inactive”.
